From patent publication US20140336182A1, “Aurora Kinase Modulators and Method of Use” (Amgen Inc., priority 2013, published 2014) come the findings set out here.

Where two headings read alike, the source gives them in different places.

For one test, the system named is HeLa cells. Nature of the test: HeLa cell 24 hr ploidy assay (DNA content). The class given is cell-based. Conditions: 4N ploidy, average, read-out: 24h_4NPloidy EC50_IP (uM Avg). An outline of the steps:
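HeLa cells (1×10^4/well, MEM+10% FBS) cultured 24 h, treated with serially diluted compounds (0.25% DMSO final), then fixed, permeabilized and stained with Hoechst 33342 (0.5 ug/ml). Imaging quantified % 4N and >4N cells; EC50 IP and EC50 transit derived from dose curves.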

In a further test the target is T1, AuroraA-TPX2 (Homo sapiens, UniProt O14965).
T1 sequence (O14965 133-383 limits assumed): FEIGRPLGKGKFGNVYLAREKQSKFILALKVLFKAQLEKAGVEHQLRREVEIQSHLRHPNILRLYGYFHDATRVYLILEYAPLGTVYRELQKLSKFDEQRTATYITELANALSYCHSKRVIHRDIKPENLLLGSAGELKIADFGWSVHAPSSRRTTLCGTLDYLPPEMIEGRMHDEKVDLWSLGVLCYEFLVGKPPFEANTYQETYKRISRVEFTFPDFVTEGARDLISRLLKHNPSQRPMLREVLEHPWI
T1 sequence (Q9ULW0 1-43 partner limits assumed): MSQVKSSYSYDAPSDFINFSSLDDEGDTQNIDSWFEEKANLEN
Nature of the test: AuroraA-TPX2 Homogeneous Time Resolved Fluorescent (HTRF) kinase assay. For orientation: Time-resolved FRET reads energy transfer from a long-lived donor to a nearby acceptor.

A further test deals with T2, AuroraB (Homo sapiens, UniProt Q96GD4).
T2 construct: 20 μL of AuroraB FL H is for a final volume of 41 μL; His
Nature of the test: AuroraB Homogeneous Time Resolved Fluorescent (HTRF) kinase assay. The class given is biochemical. Conditions: average; read-out: AurB_IC50_IP (uM Avg).

The mark [1] stands for this setting: read-out: AurA_IC50_IP (uM Avg), average.

T2 sequence (Q96GD4 whole entry): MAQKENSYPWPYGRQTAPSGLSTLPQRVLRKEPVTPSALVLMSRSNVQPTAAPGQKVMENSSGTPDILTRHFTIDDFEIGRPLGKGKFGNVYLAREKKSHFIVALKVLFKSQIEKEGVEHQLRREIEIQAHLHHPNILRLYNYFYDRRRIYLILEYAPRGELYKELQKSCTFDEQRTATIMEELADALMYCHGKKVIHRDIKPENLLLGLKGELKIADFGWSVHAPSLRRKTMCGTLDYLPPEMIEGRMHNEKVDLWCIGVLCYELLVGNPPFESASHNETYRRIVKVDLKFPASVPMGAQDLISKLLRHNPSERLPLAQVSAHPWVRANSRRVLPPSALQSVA

Consider `Fc1cc(Nc2nnc(-c3ccc(Cl)cc3)c3ccccc23)ccc1Oc1ccnc2ccccc12` [compound 244], for which, in the test with HeLa cells (Homo sapiens, HeLa, HeLa cells), the EC50 is 0.04 µM. Further, the IC50 against AuroraA-TPX2 came out at 0.048 µM; on AuroraB it was 0.003 µM.

Consider `COc1ccc2c(Cc3ccc(Nc4nnc(-c5ccccc5)c5ccccc45)cc3)ccnc2c1` [Example 53, N-(4-((7-methoxyquinolin-4-yl)methyl)phenyl)-4-phenylphthalazin-1-amine], for which, in the test with HeLa cells (Homo sapiens, HeLa, HeLa cells), the EC50 is 0.105 µM. Further, the results for the IC50 on AuroraA-TPX2 (setting [1]) and on AuroraB were 0.153 µM and 0.003 µM, respectively.

Turning to “N-(5-(7-methoxy-1,5-naphthyridin-4-yloxy)pyridin-2-yl)-4-phenylphthalazin-1-amine [Example 54]”, the EC50 in the test with HeLa cells (HeLa cells) is 0.028 µM. Also, the IC50 was 0.176 µM on AuroraA-TPX2 (setting [1]) and 0.02 µM at AuroraB.

For the compound `COc1cnc2c(Sc3ccc(Nc4nnc(N5CCC(OC)CC5)c5ccccc45)cc3)ccnc2c1` [compound 520], the EC50 in the test on HeLa cells (Homo sapiens, HeLa, HeLa cells) amounted to 0.004 µM. The IC50 against AuroraA-TPX2 was 0.027 µM; at AuroraB it was 0.017 µM.

On to “4-(4,5-dimethylthiophen-2-yl)-N-(4-(7-methoxy-1,5-naphthyridin-4-yloxy)phenyl)phthalazin-1-amine [Example 34]”, for which, in the test with HeLa cells (HeLa cells), the EC50 was 0.062 µM. The IC50 was 0.013 µM on AuroraA-TPX2 (setting [1]) and 0.01 µM on AuroraB.

For `COc1cnc2c(Sc3ccc(Nc4nnc(N5CCN6CC(F)(F)C[C@H]6C5)c5ccccc45)cc3)ccnc2c1` [compound 601], in the test with HeLa cells (Homo sapiens, HeLa, HeLa cells), the EC50 was 0.005 µM.

As for `COc1cnc2c(Sc3ccc(Nc4nnc(N5CCC(N6CCCC6)CC5)c5ccccc45)cc3)ccnc2c1` [compound 538], the EC50 in the test on HeLa cells (Homo sapiens, HeLa, HeLa cells) was found to be 0.178 µM.

For `COc1cc2nccc(Sc3ccc(Nc4nnc(-c5ccc(Cl)cc5)c5ccccc45)cc3)c2cn1` [compound 354], the EC50 with HeLa cells (Homo sapiens, HeLa, HeLa cells) turned out to be 0.007 µM.

In the case of `COc1cc(F)cc2nccc(Sc3ccc(Nc4nnc(-c5cc(C)cs5)c5ccccc45)cc3)c12` [compound 440], the EC50 in the test on HeLa cells (Homo sapiens, HeLa, HeLa cells) came to 0.029 µM.

As to `Cc1ccc(-c2nnc(Nc3ccc(Sc4ccnc5ccncc45)cc3)c3ccccc23)nc1` [compound 433], in the test on HeLa cells (Homo sapiens, HeLa, HeLa cells), the EC50 came out at 0.017 µM.

For the compound `COc1cnc2c(Oc3ccc(Nc4nnc(-c5cccc(COC(C)=O)n5)c5ccccc45)cc3)ccnc2c1` [compound 132], the EC50 in the test with HeLa cells (Homo sapiens, HeLa) was 0.323 µM.

On to `N#Cc1ccc(-c2nnc(Nc3ccc(Oc4ccnc5cc(C#N)ccc45)cc3)c3ccccc23)cc1` [compound 217], for which, in the test with HeLa cells (Homo sapiens, HeLa, HeLa cells), the EC50 came out at 0.369 µM.

Turning to `COc1cnc2c(Sc3ccc(Nc4nnc(-c5ccc6occc6c5)c5ccccc45)cc3)ccnc2c1` [compound 501], the EC50 with HeLa cells (Homo sapiens, HeLa, HeLa cells) turned out to be 0.014 µM.

On to `COc1cnc2c(Oc3ccc(Nc4nnc(-c5ccc6c(c5)OCCN6C)c5ccccc45)cc3)ccnc2c1` [compound 157], for which, in the test on HeLa cells (Homo sapiens, HeLa), the EC50 is 0.028 µM.

In the case of `COc1cnc2c(Oc3ccc(Nc4nnc(-c5cc(C)cs5)c5ccccc45)cc3)ccnc2c1` [compound 152], the EC50 in the test with HeLa cells (Homo sapiens, HeLa) is 0.009 µM.

As to `COc1cccc(-c2nnc(Nc3ccc(Sc4ccnc5ccccc45)cc3)c3ccccc23)n1` [compound 327], the EC50 in the test with HeLa cells (Homo sapiens, HeLa, HeLa cells) is 0.017 µM.

Turning to `COc1cnc2c(Oc3ccc(Nc4nnc(-c5ccc(Cl)cn5)c5ccccc45)cc3)ccnc2c1` [compound 228, 4-(5-chloro-2-pyridinyl)-N-(4-((7-(methyloxy)-1,5-naphthyridin-4-yl)oxy)phenyl)-1-phthalazinamine], the EC50 in the test with HeLa cells (Homo sapiens, HeLa, HeLa cells) worked out at 0.035 µM.

Consider `COCCn1ccc2nccc(Sc3ccc(Nc4nnc(-c5cc(C)cs5)c5ccccc45)cc3)c21` [compound 470], for which the EC50 in the test with HeLa cells (Homo sapiens, HeLa, HeLa cells) is < 0.0023 µM.

In the case of `Clc1ccc(-c2nnc(Nc3ccc(Oc4ccnc5ccoc45)cc3)c3ccccc23)cc1` [compound 483], the EC50 in the test with HeLa cells (Homo sapiens, HeLa, HeLa cells) was 0.102 µM.

With `c1ccc(-c2nnc(Nc3ccc(Oc4ccnc5ccnn45)cc3)c3ccccc23)cc1` [compound 370], the EC50 in the test with HeLa cells (Homo sapiens, HeLa, HeLa cells) was determined as 0.757 µM.

On to `COc1cnc2c(Oc3ccc(Nc4nnc(-c5ccnn5C)c5ccccc45)cc3)ccnc2c1` [compound 223], for which the EC50 with HeLa cells (Homo sapiens, HeLa, HeLa cells) was > 1.2 µM.

Regarding `Cc1ccc(-c2nnc(Nc3ccc(Oc4ccnc5cccnc45)cc3)c3ccccc23)cc1N` [compound 416], the EC50 with HeLa cells (Homo sapiens, HeLa, HeLa cells) amounted to 0.008 µM.

In the case of `COc1cnc2c(Oc3ccc(Nc4nnc(-c5ccc(C(N)=O)cc5)c5ccccc45)cc3)ccnc2c1` [compound 177], the EC50 with HeLa cells (Homo sapiens, HeLa, HeLa cells) was > 1.2 µM.

On to `COc1ccc2nccc(Oc3ccc(Nc4nnc(-c5cc(C)cs5)c5ccccc45)cc3)c2c1` [compound 269], for which the EC50 in the test on HeLa cells (Homo sapiens, HeLa, HeLa cells) turned out to be 0.016 µM.

Regarding `N#Cc1ccc2c(Oc3ccc(Nc4nnc(-c5ccccc5)c5ccccc45)cc3)ccnc2c1` [compound 105], the EC50 in the test with HeLa cells (Homo sapiens, HeLa) was 0.036 µM.

In the case of `Cc1cc2nccc(Sc3ccc(Nc4nnc(-c5ccc(Cl)cc5)c5ccccc45)cc3)c2o1` [compound 491], the EC50 in the test with HeLa cells (Homo sapiens, HeLa, HeLa cells) amounted to 0.037 µM.

Take `COCCOc1ccc2c(Sc3ccc(Nc4nnc(-c5ccc(Cl)cc5)c5ccccc45)cc3)ccnc2c1` [compound 431]: the EC50 in the test with HeLa cells (Homo sapiens, HeLa, HeLa cells) stood at 0.01 µM.

As to `Cc1ccc(-c2nnc(Nc3ccc(Sc4ccnc5cc(C6CC6)oc45)cc3)c3ccccc23)cc1N` [compound 487], the EC50 in the test with HeLa cells (Homo sapiens, HeLa, HeLa cells) worked out at 0.006 µM.

Take `COc1cnc2c(Oc3ccc(Nc4nnc(-c5ccc(Cl)c(C)c5)c5ccccc45)cc3)ccnc2c1` [compound 236]: the EC50 with HeLa cells (Homo sapiens, HeLa, HeLa cells) was determined as 0.011 µM.

For `c1cnc2c(Sc3ccc(Nc4nnc(-c5ccc6c(c5)CCO6)c5ccccc45)cc3)ccnc2c1` [compound 445], in the test on HeLa cells (Homo sapiens, HeLa, HeLa cells), the EC50 was 0.001 µM.

For the compound `COCCOc1ccc(-c2nnc(Nc3ccc(Sc4ccnc5cc(OC)cnc45)cc3)c3ccccc23)cc1OCCOC` [compound 473], in the test with HeLa cells (Homo sapiens, HeLa, HeLa cells), the EC50 stood at 0.1 µM.

Take `c1ccc(-c2nnc(Nc3ccc(Oc4ccnc5cc(-c6cn[nH]c6)ccc45)cc3)c3ccccc23)cc1` [compound 417]: in the test with HeLa cells (Homo sapiens, HeLa, HeLa cells), the EC50 amounted to 0.001 µM.

As for `COc1cnc2c(Oc3ccc(Nc4nnc(-c5ccnc(Cl)c5)c5ccccc45)cc3)ccnc2c1` [compound 283], the EC50 with HeLa cells (Homo sapiens, HeLa, HeLa cells) amounted to 0.343 µM.

With `COc1ccc2c(Oc3ccc(Nc4nnc(-c5ccccc5)c5ccccc45)cc3)ccnc2c1` [compound 91], the EC50 in the test on HeLa cells (Homo sapiens, HeLa) amounted to 0.03 µM.

Regarding `COc1cnc2c(Oc3ccc(Nc4nnc(-c5ccc(C)c(Cl)c5)c5ccccc45)cc3)ccnc2c1` [compound 224], the EC50 with HeLa cells (Homo sapiens, HeLa, HeLa cells) is 0.007 µM.

Turning to `Cc1csc(-c2nnc(Nc3ccc(Sc4ccnc5cc(C(=O)N6CCOCC6)sc45)cc3)c3ccccc23)c1` [compound 312], in the test with HeLa cells (Homo sapiens, HeLa, HeLa cells), the EC50 was found to be 0.032 µM.

`COc1cnc2c(Oc3ccc(Nc4nnc(-c5ccc(N6CCCCC6)cc5)c5ccccc45)cc3)ccnc2c1` [compound 198]: the EC50 in the test on HeLa cells (Homo sapiens, HeLa, HeLa cells) was 0.399 µM.

For the compound `CCc1cc(-c2ccc(C)cc2)nnc1Nc1ccc(Nc2ccnc3cc(OC)cnc23)cc1` [compound 595], the EC50 in the test with HeLa cells (Homo sapiens, HeLa, HeLa cells) stood at 0.083 µM.

For the compound `Brc1cnc2c(Oc3ccc(Nc4nnc(-c5ccccc5)c5ccccc45)cc3)ncnc2c1` [compound 599], the EC50 in the test on HeLa cells (Homo sapiens, HeLa, HeLa cells) was > 1.2 µM.

With `COc1cc2nncc(Oc3ccc(Nc4nnc(-c5ccc(Cl)cc5)c5ccccc45)cc3)c2cc1OC` [compound 282], in the test on HeLa cells (Homo sapiens, HeLa, HeLa cells), the EC50 is ≥ 1.2 µM.

Take `Cn1cncc1-c1cc2nccc(Oc3ccc(Nc4nnc(-c5ccc(Cl)cc5)c5ccccc45)cn3)c2s1` [compound 267]: in the test with HeLa cells (Homo sapiens, HeLa, HeLa cells), the EC50 came out at 0.013 µM.

`COc1cnc2c(Sc3ccc(Nc4nnc(-c5ccc6nonc6c5)c5ccccc45)cc3)ccnc2c1` [compound 504]: in the test on HeLa cells (Homo sapiens, HeLa, HeLa cells), the EC50 was found to be 0.006 µM.

Turning to `COCCOc1nnc(Nc2ccc(Sc3ccnc4cc(OC)cnc34)cc2)c2ccccc12` [compound 515], the EC50 with HeLa cells (Homo sapiens, HeLa, HeLa cells) is 0.018 µM.

With `COCCOc1cc(-c2nnc(Nc3ccc(Sc4ccnc5cc(OC)cnc45)cc3)c3ccccc23)ccc1Cl` [compound 450], the EC50 with HeLa cells (Homo sapiens, HeLa, HeLa cells) was found to be 0.008 µM.

Regarding `Cc1csc(-c2nnc(Nc3ccc(Oc4ccnc5cc(C#N)ccc45)cc3)c3ccccc23)n1` [compound 86, 4-((4-((4-(4-methyl-1,3-thiazol-2-yl)-1-phthalazinyl)amino)phenyl)oxy)-7-quinolinecarbonitrile], in the test on HeLa cells (Homo sapiens, HeLa), the EC50 is 0.097 µM.
